The structures appear in SMILES notation. Where two headings read alike, the source gives them in different places.

For data set [1], the target named is T1, RORγ (Mus musculus, UniProt P51450).
T1 construct: mRORγ (Pro-261-end); expressed in transfected cells
T1 sequence (P51450 261-516 limits assumed): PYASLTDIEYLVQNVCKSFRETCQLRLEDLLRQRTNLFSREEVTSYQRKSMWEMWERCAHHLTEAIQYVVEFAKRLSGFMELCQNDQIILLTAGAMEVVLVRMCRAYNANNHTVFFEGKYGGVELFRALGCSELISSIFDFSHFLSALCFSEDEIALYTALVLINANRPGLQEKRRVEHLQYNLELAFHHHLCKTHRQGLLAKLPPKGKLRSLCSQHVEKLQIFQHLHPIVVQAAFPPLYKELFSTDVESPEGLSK
Put plainly: Gal4-RORγ-LBD UAS-luciferase reporter assay in TRex-CHO-K1 cells (doxycycline-stimulated). Format: cell-based.

Data set [2] has as its system TRex-CHO-luciferase-RORγ cells. As to the kind of experiment: resazurin cell viability assay. Type of data set: cell-based. The settings on record: 5 µg/mL. The protocol:
(§1) For screening FIU libraries, cells were resuspended in Ham’s F-12 assay medium containing 2% charcoal-treated FBS and no selection drugs. Ten thousand cells per well were seeded in 30 µL of assay medium in 384 white plates with clear bottom (Greiner). Cells were allowed to attach for 2 h, followed by compound treatment and stimulation with 20 ng/mL doxycycline for an additional 16–20 h. Appropriate solvent controls, negative controls with no doxycycline, and blanks with no cells were included in every plate. Prior to measuring luciferase activity, 6 µL of 0.15 mg/mL resazurin (Cayman Chemical) in PBS were added and cells were incubated for 1 h at 37 °C. Fluorescence intensity was detected at 545 nm excitation/590 nm emission using a CLARIOstar reader (BMGLabtech) as a measure of cell viability, to identify any potential cytotoxic effect of test compounds and mixtures. Following the resazurin assay, the medium was removed and 20 µL of BriteLite-Plus luciferase reagent (Perking Elmer) were added; luminescence was measured in a CLARIOstar reader using a 384 aperture spoon and a 0.1 sec measuring time interval.
For orientation: Alamar Blue is a resazurin reagent that responds to reducing activity.

Data set [3] addresses T1, RORγ. As to the kind of experiment: Gal4-RORγ-LBD UAS-luciferase reporter assay in TRex-CHO-K1 cells (doxycycline-stimulated). The settings on record: for inhibition at 4 µM: T-REx-CHO-K1, library 2520, RORγ cells, read-out: % Inhibition at 4 μM (N=3); for % Inhibition at 4 μM (N=3): library 2520, RORγ cells. Format: cell-based. (A reporter such as luciferase makes a cellular process visible.)

A further data set concerns the target T2, RORα (Homo sapiens, UniProt P35398).
T2 construct: hRORα (Pro-211-end); expressed in transfected cells
T2 sequence (P35398 266-523): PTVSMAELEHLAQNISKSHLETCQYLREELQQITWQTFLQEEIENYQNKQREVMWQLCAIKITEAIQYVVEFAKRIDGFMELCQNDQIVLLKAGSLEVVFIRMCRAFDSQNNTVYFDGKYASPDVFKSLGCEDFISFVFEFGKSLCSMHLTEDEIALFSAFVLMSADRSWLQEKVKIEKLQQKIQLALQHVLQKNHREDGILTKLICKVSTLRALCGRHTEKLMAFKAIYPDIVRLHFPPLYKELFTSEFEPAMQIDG
Put plainly: Gal4-RORα-LBD UAS-luciferase reporter assay in TRex-CHO-K1 cells (doxycycline-stimulated). Format: cell-based.
From the text: The Gal4-DBD-ROR-LBD fusion proteins were subcloned in the pcDNA4/TO expression vector (Thermo Scientific) and transfected into TRex-CHO-K1 cells (Thermo Scientific) for tetracycline-controlled expression of the corresponding ROR proteins. Transfected cells were selected with hygromycin and Zeocin and individual clones for each of the Gal4-RORγ, Gal4-RORα, and Gal4-RORβ cell lines were isolated using a standard serial dilution protocol. Clones with the highest doxycycline-dependent stimulation of luciferase activity were selected for all functional experiments.
as §1, with “Ten thousand cells per well were seeded in 30 µL of assay medium in 384 white plates with clear bottom (Greiner).” left out, “mixtures.” for “mixtures. Following the resazurin assay, the medium was removed and 20 µL of BriteLite-Plus luciferase reagent (Perking Elmer) were added; luminescence was measured in a CLARIOstar reader using a 384 aperture spoon and a 0.1 sec measuring time interval.”
(§2) Luminescence was normalized by the fluorescence intensity and the percentage of inhibition was calculated with respect to control cells stimulated with doxycycline in the presence of solvent control (0.1% DMF). All primary screens with individual compounds were performed in triplicate with a final concentration of 5 µg/mL. […] IC50 values were calculated using GraphPrism (GraphPad software).

The target of the next data set is T3, RORβ (Rattus norvegicus, UniProt P45446).
T3 construct: rRORβ (Pro 205-end); expressed in transfected cells
T3 sequence (P45446 205-459 isoform P45446-1): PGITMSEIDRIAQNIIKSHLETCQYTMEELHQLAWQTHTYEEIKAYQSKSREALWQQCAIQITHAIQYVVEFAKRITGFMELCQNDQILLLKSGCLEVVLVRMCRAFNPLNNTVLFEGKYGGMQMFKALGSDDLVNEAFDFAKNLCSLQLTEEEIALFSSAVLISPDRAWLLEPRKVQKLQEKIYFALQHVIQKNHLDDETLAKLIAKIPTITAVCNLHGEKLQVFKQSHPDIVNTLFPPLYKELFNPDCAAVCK
Put plainly: Gal4-RORβ-LBD UAS-luciferase reporter assay in TRex-CHO-K1 cells (doxycycline-stimulated). Type of data set: cell-based.
From the text: To investigate the transcriptional activity of all three RORs, we generated stable cell lines expressing an UAS-driven luciferase reporter together with the corresponding Gal4-DNA binding domain fused to the ligand binding domains (LBDs) of mRORγ (Pro-261-end), hRORα (Pro-211-end), or rRORβ (Pro 205-end). The Gal4-DBD-ROR-LBD fusion proteins were subcloned in the pcDNA4/TO expression vector (Thermo Scientific) and transfected into TRex-CHO-K1 cells (Thermo Scientific) for tetracycline-controlled expression of the corresponding ROR proteins. Transfected cells were selected with hygromycin and Zeocin and individual clones for each of the Gal4-RORγ, Gal4-RORα, and Gal4-RORβ cell lines were isolated using a standard serial dilution protocol. Clones with the highest doxycycline-dependent stimulation of luciferase activity were selected for all functional experiments. All cell lines were maintained in complete Ham’s F12 medium containing 10% fetal bovine serum (FBS), 10 µg/mL blasticidine, 100 µg/mL hygromycin, and 100 µg/mL Zeocin and were used within 2 months of culture without any loss of doxycycline-dependent stimulation of luciferase activity.
as §1, §2

In another data set the test system is Th17 cells. On the set-up: method as in PMID 21441909, PMID 21499262, PMID 21566134. Conditions: RORγ inverse agonists; cited from earlier work.
Data set [4] concerns experimental autoimmune encephalomyelitis mouse model. On the set-up: method as in PMID 21441909, PMID 21499262, PMID 21566134. The settings on record: EAE mouse model; cited from earlier work.
The mark [5] stands for this setting: IC50 (μM, N=4) ROR-Gamma, library 2520.
The mark [6] stands for this setting: RORγ : IC50, Figure 6, confirmatory experiment, N = 4.
Where [7] appears, read: IC50 (μM, N=4) ROR-Alpha, library 2520.
The mark [8] stands for this setting: RORα : IC50, Figure 6, confirmatory experiment, N = 4.
Setting [9] is: IC50 (μM, N=4) ROR-Beta, library 2520.
Setting [10] is: Figure 6, confirmatory experiment, N = 4, read-out: RORβ : IC50.
The mark [11] stands for this setting: read-out: IC50 (μM, N=4) ROR-Gamma, library 2520.
Setting [12] is: read-out: IC50 (μM, N=4) ROR-Alpha, library 2520.
Setting [13] is: read-out: IC50 (μM, N=4) ROR-Beta, library 2520.

In the case of `O=C(Cc1ccccc1)NC1=NC[C@H](Cc2ccccc2)N1CCC12CC3CC(CC(C3)C1)C2` [1295.271], the “% Inhibition RORγ 5 μg/ml” value at RORγ [1] (individual controls 1295.201-307, 5 μg/ml, triplicate) is 36.0%. Also, the “toxicity as determined by a resazurin assay” value in data set [2] is “significant toxicity”.

For orientation: IC50 means the concentration that inhibits the measured activity by half. As usually defined, the inhibition is the change of the read-out against control, counted positive when it falls. For `CCC(C(=O)NC1=NC[C@H](Cc2ccccc2)N1CCC(C)c1ccccc1)c1ccccc1` (some centres unmarked) [2520.31], the 50% inhibitory concentration (IC50) against RORγ [1] (setting [5]) amounted to 3.95 ± 0.3 µM; on RORγ [1] (setting [6]), 3.9 ± 0.3 µM; at RORα (setting [7]), 6.82 ± 0.4 µM; at RORα (setting [8]), 6.8 ± 0.4 µM; at RORβ (setting [9]), 5.5 ± 0.3 µM. In addition, the inhibition at 4 µM on RORγ [3] worked out at 70.5%.

Take `CCOc1ccc(C[C@H]2CN=C(NC(=O)C(CC)c3ccccc3)N2CC2CCCCC2)cc1` (some centres unmarked) [2520.39]: the half-maximal inhibitory concentration (IC50) came out at 4.36 ± 0.2 µM on RORγ [1] (setting [5]); 4.3 ± 0.2 µM at RORγ [1] (setting [6]); 6.36 ± 0.3 µM against RORα (setting [7]); 6.3 ± 0.3 µM against RORα (setting [8]); 5.3 ± 0.4 µM at RORβ (setting [10]); 5.34 ± 0.4 µM against RORβ (setting [9]). In addition, the inhibition at 4 µM on RORγ [3] came out at 73.2%.

One may read the % Inhibition as the relative decrease from the control value, in per cent. The low end stands for little suppression, the high end for strong suppression. As for `CCOc1ccc(C[C@H]2CN=C(NC(=O)Cc3ccc(OC)cc3)N2CC2CCCCC2)cc1` [2520.42], the IC50 on RORγ [1] (setting [11]) came to 5.17 ± 0.8 µM; on RORα (setting [12]), 5.4 ± 0.4 µM; at RORβ (setting [13]), 5.21 ± 0.3 µM. Further, the “% Inhibition at 4 μM (N=3)” value at RORγ [3] was 96.5%.

Take `CCOc1ccc(C[C@H]2CN=C(NC(=O)C(CC)c3ccccc3)N2CCC2CC3CCC2C3)cc1` (some centres unmarked) [2520.47]: the 50% inhibitory concentration (IC50) against RORγ [1] (setting [5]) is 4.68 ± 0.2 µM; on RORγ [1] (setting [6]), 4.6 ± 0.2 µM; against RORα (setting [7]), 7.2 ± 0.4 µM; on RORβ (setting [10]), 6.6 ± 0.4 µM; against RORβ (setting [9]), 6.67 ± 0.4 µM. Besides, the inhibition at 4 µM at RORγ [3] turned out to be 51.3%.

With `CCOc1ccc(C[C@H]2CN=C(NC(=O)C(C)C)N2CC2CCCCC2)cc1` [2520.48], the values for the 50% inhibitory concentration (IC50) on RORγ [1] (setting [11]), at RORα (setting [12]) and at RORβ (setting [13]) were 9.27 ± 0.4 µM, 9.61 ± 0.5 µM and 6.57 ± 0.5 µM, respectively. Moreover, at RORγ [3], the “% Inhibition at 4 μM (N=3)” value stood at 69.2%.

With `CC(=O)Nc1nc(C)c(S(=O)(=O)Nc2ccc(C(O)(C(F)(F)F)C(F)(F)F)cc2)s1` [SR1001], the “suppression of Th17 differentiation” value in the data set with Th17 cells was “suppress Th17 differentiation”. The “suppression of the onset of disease” value in data set [4] is “suppress Th17 differentiation and the onset of disease”.

As for `C[C@H]1O[C@@H](O[C@H]2[C@@H](O)C[C@H](O[C@H]3[C@@H](O)C[C@H](O[C@H]4CC[C@@]5(C)[C@H](CC[C@@H]6[C@@H]5C[C@@H](O)[C@]5(C)[C@@H](C7=CC(=O)OC7)CC[C@]65O)C4)O[C@@H]3C)O[C@@H]2C)C[C@H](O)[C@@H]1O` [digoxin], the “suppression of Th17 differentiation” value in the data set with Th17 cells is “suppress Th17 differentiation”. The “suppression of the onset of disease” value in data set [4] is “suppress Th17 differentiation and the onset of disease”.

Turning to `C[C@H]1[C@H](C)CC[C@]2(C(=O)O)CC[C@]3(C)C(=CC[C@@H]4[C@@]5(C)CC[C@H](O)C(C)(C)[C@@H]5CC[C@]43C)[C@H]12` [ursolic acid], the “suppression of Th17 differentiation” value in the data set on Th17 cells is on record as “suppress Th17 differentiation”. For the same compound, in data set [4], the “suppression of the onset of disease” value was “suppress Th17 differentiation and the onset of disease”.

The values above are taken from publication PMC9029089, “1,5-Disubstituted Acylated 2-Amino-4,5-dihydroimidazoles as a New Class of Retinoic Acid Receptor–Related Orphan Receptor (ROR) Inhibitors” (International Journal of Molecular Sciences, 2022).
